These results are taken from patent publication US9718809B2, “Bisarylsulfonamides useful in the treatment of inflammation and cancer” (Kancera AB, priority 2011, dated 2017).

Where a name gives a salt, the structure may show the parent alone. Some results are limits rather than exact numbers.

The first assay has as its system F-2,6-P2 in PANC-1 cells. The experiment in a line: Quantification of F-2,6-P2 (Van Schaftingen coupled enzyme assay) in PANC-1 cells. It counts as cell-based, human. The note with it: Homo sapiens; PANC-1 cells; read-out: IC50 based on quantification of F-2,6-P2. The text has this:
A method for quantification of F-2,6-P2 has been described by Van Schaftingen et al. (1982) Eur. J. Biochem. 129, 191-5. This sensitive assay is based on the potent activation of pyrophosphate dependent phosphofructokinase-1 (PPi-PFK) from potato tubers by F-2,6-P2. The use of a series of coupled enzymes leads to a consumption of NADH (nicotinamide adenine dinucleotide) that can be followed spectrophotometrically (an updated protocol is available in Van Schaftingen, (1984) Methods of Enzymatic Analysis (Bergmeyer, H. U., ed.), 3rd edn., vol. 6, pp. 335-341, Verlag Chemie, Weinheim). A protocol for measurements in 96-well microtiter plate format is also available (Bruni et al., (1989) Anal. Biochem. 178, 324-6).
The levels of F-2,6-P2 have been determined using the van Shaftingen assay as described in the protocol below, in six different cancer cell lines endogenously expressing varying levels of the different isoforms of PFK-2/BPase-2 (MCF-7, PANC-1, NUGC-3, SW480, SW620 and MIA PaCa-2). All reagents were purchased from commercial sources or prepared in-house.
Cell line B (PANC-1, human pancreatic carcinoma cell line): PANC-1 cells (ATCC-CRL-1469), lot. no. 58564651. Cells were seeded at a concentration of ˜250 000 cells/mL in 100 μL growth medium (˜25 000 cells/well).
Growth medium (cell lines B-F): Dulbecco's Modified Eagle's Medium, DMEM, VWR, LONZ12-604F; 10% FBS, Invitrogen, 10270-106.
Starvation medium (cell lines A-F): DMEM/F12 without phenol red and glucose free, SVA, 991373; 0.25% FBS, Invitrogen, 10270-106.
Induction medium (cell lines A-F): DMEM/F12 without phenol red and glucose free, SVA, 991373; 0.25% FBS, Invitrogen, 10270-106 (same as starvation medium).
Cells were seeded in 96-well Corning Costar tissue culture plates (CLS3595, Sigma-Aldrich) using the concentrations specified above for the different cell lines A-F and incubated over night at 37° C. and 5% CO2. Row A in the plate was left empty and the cell lines added to rows B-H. Next day the growth medium was discarded and replaced with 100 μL starvation medium. The plates were incubated for 18 h at 37° C. and 5% CO2. After 18 h of starvation the cells were induced with 100 μL compound or control solutions. Compounds were either tested in two concentrations (50 μM and 10 μM) or in dose response curves starting from 50 μM. The final DMSO concentration in assay plates was 0.5%. Also a dose response curve of a reference inhibitor was included in row H on each plate. All compounds were tested in duplicate plates. Compounds (in 96 well CLS 3365, Sigma-Aldrich plates) were serial diluted in DMSO from 10 mM compound DMSO stock solutions with Janus (automated liquid handling workstation from PerkinElmer). Five μL were transferred to a Greiner deep well plate (736-0155, VWR) with 495 μL starvation medium. The final start concentration of compounds in the dilution plate was 100 μM, 1% DMSO. For compounds tested as single points, 10 mM compound solutions were diluted five fold in DMSO to 2 mM, followed by the transfer of 5 μL to separate dilution plates with 495 μL starvation medium. The final concentrations of compounds in these dilution plates were 100 or 20 μM, respectively, and final concentration of DMSO was 1%. The plates were incubated at 37° C. and 5% CO2 for 1 h, followed by the addition of 10 μL 20 mM D-glucose in starvation medium. Controls, with and without 1 mM glucose, were included in row B. The final assay volume was 210 μL per well. After 2 h of incubation at 37° C. and 5% CO2, the supernatants were discarded and the cells lysed by the addition of 25 μL 250 mM NaOH. The plates were incubated at 37° C. and 5% CO2 for 5 min followed by an addition of 75 μL MilliQ dH2O. The supernatants were further diluted with 210 μL MilliQ dH2O to a final concentration of 20 mM NaOH. 200 μL were transferred to NUNC 96-well plates (7322661, VWR) and the plates were sealed and stored at −20° C. until analysis. […]
By IC50 is commonly meant the concentration needed to halve the response being measured. Take `COC(=O)c1ccc(NS(=O)(=O)c2cccc(Br)c2)cc1O` [Example 5, Methyl 4-{[(3-bromophenyl)sulfonyl]amino}-2-hydroxybenzoate]: the half-maximal inhibitory concentration (IC50) was 12.3 µM.
`COC(=O)c1ccc(NS(=O)(=O)c2cc3ccccc3o2)cc1O` [Example 9, Methyl 4-[(1-benzofuran-2-ylsulfonyl)amino]-2-hydroxybenzoate]: the IC50 is 19.6 µM.
The same measure, in the same setting: the result for `COC(=O)c1ccc(NS(=O)(=O)c2cc(C(F)(F)F)oc2C)cc1O` [Example 10, Methyl 2-hydroxy-4-({[2-methyl-5-(trifluoromethyl)furan-3-yl]sulfonyl}amino)benzoate] reads 6.7 µM.
The same measure, in the same setting: then `COC(=O)c1ccc(NS(=O)(=O)c2cnc(Cl)c(Br)c2)cc1O` [Example 14, Methyl 4-{[(5-bromo-6-chloropyridin-3-yl)sulfonyl]amino}-2-hydroxybenzoate], with 1.9 µM.
The same measure, in the same setting: then `COC(=O)c1ccc(NS(=O)(=O)c2ccc(C(F)(F)F)cc2)cc1O` [Example 16, Methyl 2-hydroxy-4-({[4-(trifluoromethyl)phenyl]sulfonyl}amino)benzoate], with 4.6 µM; and `COC(=O)c1ccc(NS(=O)(=O)c2cc(Cl)cc(Cl)c2)cc1O` [Example 22, Methyl 4-{[(3,5-dichlorophenyl)sulfonyl]amino}-2-hydroxybenzoate], with 1.7 µM; and `COC(=O)c1ccc(NS(=O)(=O)Cc2ccc(Br)cc2)cc1O` [Example 24, Methyl 4-{[(4-bromobenzyl)sulfonyl]amino}-2-hydroxybenzoate], with 10.4 µM.
`COC(=O)c1ccc(NS(=O)(=O)c2cc(Cl)sc2Cl)cc1O` [Example 25, Methyl 4-{[(2,5-dichloro-3-thienyl)sulfonyl]amino}-2-hydroxybenzoate]: the half-inhibitory concentration (IC50) was 2.3 µM.
On the same count and under the same terms, then `COC(=O)c1ccc(NS(=O)(=O)c2ccc(F)c(Cl)c2)cc1O` [Example 32, Methyl 4-{[(3-chloro-4-fluorophenyl)sulfonyl]amino}-2-hydroxybenzoate], with 4.8 µM; and `COC(=O)c1ccc(NS(=O)(=O)c2ccc(F)c3ccccc23)cc1O` [Example 33, Methyl 4-{[(4-fluoro-1-naphthyl)sulfonyl]amino}-2-hydroxybenzoate], with 3.6 µM; and `COC(=O)c1ccc(NS(=O)(=O)c2cccc3c(N(C)C)cccc23)cc1O` [Example 40, Methyl 4-({[5-(dimethylamino)naphthalen-1-yl]sulfonyl}amino)-2-hydroxybenzoate trifluoroacetate], with 2.1 µM.
Same read-out and setting: then `COC(=O)c1ccc(NS(=O)(=O)c2ccc(CNC(=O)c3ccccc3)s2)cc1O` [Example 41, Methyl 2-hydroxy-4-{[(5-{[(phenylcarbonyl)amino]methyl}thiophen-2-yl)sulfonyl]amino}benzoate], with 19 µM; and `COC(=O)c1ccc(NS(=O)(=O)c2cccc(OC(F)(F)F)c2)cc1O` [Example 44, Methyl 2-hydroxy-4-({[3-(trifluoromethoxy)phenyl]sulfonyl}amino)benzoate], with 5.8 µM.
Still for that read-out and setting: the result for `COC(=O)c1ccc(NS(=O)(=O)c2cc(Br)c(F)cc2F)cc1O` [Example 49, Methyl 4-{[(5-bromo-2,4-difluorophenyl)sulfonyl]amino}-2-hydroxybenzoate] reads 5.7 µM.
Turning to `COC(=O)c1ccc(NS(=O)(=O)c2csc3ccccc23)cc1O` [Example 52, Methyl 4-[(1-benzothien-3-ylsulfonyl)amino]-2-hydroxybenzoate], the IC50 amounted to 10.8 µM.
Still for that read-out and setting: the result for `COC(=O)c1ccc(NS(=O)(=O)c2c(Cl)sc(Cl)c2C)cc1O` [Example 53, Methyl 4-{[(2,5-dichloro-4-methyl-3-thienyl)sulfonyl]amino}-2-hydroxybenzoate] reads 3.1 µM.
The same measure, in the same setting: then `COC(=O)c1ccc(NS(=O)(=O)c2scc(Br)c2Br)cc1O` [Example 57, Methyl 4-{[(3,4-dibromothiophen-2-yl)sulfonyl]amino}-2-hydroxybenzoate], with 5.7 µM; and `COC(=O)c1ccc(NS(=O)(=O)c2cc(C)c(Br)s2)cc1O` [Example 58, Methyl 4-{[(5-bromo-4-methylthiophen-2-yl)sulfonyl]amino}-2-hydroxybenzoate], with 5.6 µM.
The same measure, in the same setting: the result for `O=C(OCCn1cccc1)c1ccc(NS(=O)(=O)c2cc(Cl)c(Cl)s2)cc1O` [Example 61, 2-(1H-Pyrrol-1-yl)ethyl 4-{[(4,5-dichlorothiophen-2-yl)sulfonyl]amino}-2-hydroxybenzoate] reads 0.6 µM.
Take `O=C(OCCCN1CCOCC1)c1ccc(NS(=O)(=O)c2cc(Cl)c(Cl)s2)cc1O` [Example 63, 3-Morpholin-4-ylpropyl 4-{[(4,5-dichlorothiophen-2-yl)sulfonyl]amino}-2-hydroxybenzoate trifluoroacetate]: the 50% inhibitory concentration (IC50) was 4 µM.
Consider `CCOCCOC(=O)c1ccc(NS(=O)(=O)c2cc(Cl)sc2Cl)cc1O` [Example 66, 2-Ethoxyethyl 4-{[(2,5-dichloro-3-thienyl)sulfonyl]amino}-2-hydroxybenzoate], for which the half-maximal inhibitory concentration (IC50) was 5.7 µM.

The same assay, now with this note: at 12.5-50 μM in PANC-1 cells.
Regarding `COC(=O)c1ccc(NS(=O)(=O)Cc2cccc(Br)c2)cc1O` [Example 23, Methyl 4-{[(3-bromobenzyl)sulfonyl]amino}-2-hydroxybenzoate], the “inhibition (F-2,6-P2 levels)” value is not below 50%.
Still for that read-out and setting: then `COC(=O)c1ccc(NS(=O)(=O)c2cccc(OC(F)F)c2)cc1O` [Example 31, Methyl 4-({[3-(difluoromethoxy)phenyl]sulfonyl}amino)-2-hydroxybenzoate], with not below 50%; and `COC(=O)c1ccc(NS(=O)(=O)c2ccc(-c3ccccc3)cc2)cc1O` [Example 35, Methyl 4-[(biphenyl-4-ylsulfonyl)amino]-2-hydroxybenzoate], with not below 50%; and `COC(=O)c1ccc(NS(=O)(=O)c2ccc(C(C)(C)C)cc2)cc1O` [Example 36, Methyl 4-{[(4-tert-butylphenyl)sulfonyl]amino}-2-hydroxybenzoate], with not below 50%.
The same measure, in the same setting: the result for `COC(=O)c1ccc(NS(=O)(=O)c2ccc(Cl)cc2)cc1O` [Example 42, Methyl 4-{[(4-chlorophenyl)sulfonyl]amino}-2-hydroxybenzoate] reads not below 50%; that for `COC(=O)c1ccc(NS(=O)(=O)c2c(C)cccc2Cl)cc1O` [Example 43, Methyl 4-{[(2-chloro-6-methylphenyl)sulfonyl]amino}-2-hydroxybenzoate], not below 50%.
The same measure, in the same setting: then `O=C(O)C(F)(F)F.O=C(OCCCn1ccnc1)c1ccc(NS(=O)(=O)c2cc(Cl)c(Cl)s2)cc1O` [Example 64, 3-(1H-Imidazol-1-yl)propyl 4-{[(4,5-dichlorothiophen-2-yl)sulfonyl]amino}-2-hydroxybenzoate trifluoroacetate], with not below 50%; and `CN1CCN(CCCOC(=O)c2ccc(NS(=O)(=O)c3cc(Cl)c(Cl)s3)cc2O)CC1.O=C(O)C(F)(F)F` [Example 65, 3-(4-Methylpiperazin-1-yl)propyl 4-{[(4,5-dichlorothiophen-2-yl)sulfonyl]amino}-2-hydroxybenzoate trifluoroacetate], with not below 50%.
